Tests used:
[1] = Apparent permeability in MDCKII-MDR1 cells; format: ADME, cell-based, Canis lupus familiaris; settings: dog, MDCK-MDR1
[2] = Prodrug release in mouse assessed as unbound brain to plasma concentration of ketoprofen at 30 mg/kg, po; format: ADME, organism-based
[3] = Prodrug release in mouse assessed as nipecotic-acid concentration in brain at 15 mg/kg, iv after 30 mins; format: ADME, organism-based; settings: in vivo, 0.5 h
[4] = Prodrug release in mouse brain assessed as Cmax of ibuprofen after 60 mins; format: ADME, tissue-based; design: time 60 min; settings: in vivo, 1 h
[5] = Prodrug release in mouse brain assessed as AUC of ibuprofen after 60 mins; format: ADME, tissue-based; design: time 60 min; settings: in vivo, 1 h
[6] = Cmax in mouse brain at 48 mmol/kg, iv after 25 mins; format: ADME, organism-based; design: dose 48 mmol/Kg, time 25 min, route iv
[7] = AUC in mouse brain at 48 mmol/kg, iv after 25 mins; format: ADME, organism-based; design: time 25 min, dose 48 mmol/Kg, route iv; settings: in vivo
[8] = Unbound brain-to-plasma concentration ratio in mouse at 30 mg/kg, po; format: ADME, organism-based; settings: brain and plasma, read-out: K(p,uu,brain)
[9] = Inhibition of Toxoplasma gondii cathepsin L
[10] = Efflux ratio of apparent permeability across basolateral to apical side over apical to basolateral side in MDCK-MDR1 cells; format: ADME, cell-based, Canis lupus familiaris; settings: dog
[11] = Ratio of AUC in Brain to plasma in mouse at 10 mg/kg, po; format: ADME, organism-based; settings: brain and plasma, read-out: Ratio AUC
Procathepsin L = Procathepsin L (Homo sapiens, UniProt P07711); test: Inhibition of human cathepsin L
Chain of Procathepsin L (P07711 whole entry): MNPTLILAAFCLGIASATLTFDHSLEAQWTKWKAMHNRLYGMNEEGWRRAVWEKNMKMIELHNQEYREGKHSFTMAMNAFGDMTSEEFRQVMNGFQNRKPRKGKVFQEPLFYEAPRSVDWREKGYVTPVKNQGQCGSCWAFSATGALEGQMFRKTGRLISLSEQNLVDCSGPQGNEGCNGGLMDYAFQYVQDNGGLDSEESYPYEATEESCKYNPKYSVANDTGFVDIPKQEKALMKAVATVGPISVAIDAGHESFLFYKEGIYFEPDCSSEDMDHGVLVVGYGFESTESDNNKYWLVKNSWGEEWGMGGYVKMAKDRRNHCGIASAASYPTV

Question: For `CC(c1cc(O)ccc1O)N(C)C.Cl` (centres undefined), which Papp [1] is on record?
Answer: 26.3 ×10⁻⁶ cm/s

Question: Which “K(p,uu,brain)” value [2] does the source give for `C[C@H](C(=O)Nc1cccc(C[C@@H](N)C(=O)O)c1)c1cccc(C(=O)c2ccccc2)c1` here?
Answer: 0.13

Question: Which Papp [1] does the source give for `CC(c1cccc(O)c1O)N(C)C.Cl` (centres undefined) here?
Answer: 23.9 ×10⁻⁶ cm/s

Question: For `C[C@H](C(=O)Nc1ccc(C[C@@H](N)C(=O)O)cc1)c1cccc(C(=O)c2ccccc2)c1`, which “K(p,uu,brain)” value [2] is on record?
Answer: 0.35

Question: Which Drug metabolism [3] does the source give for `N[C@@H](COC(=O)C1CCCNC1)C(=O)O` (some centres undefined) here?
Answer: 450 nmol/g

Question: For `CC(C)Cc1ccc(C(C)C(=O)O[C@@H](CN(C)C)[C@H]2OC(=O)C(O)=C2O)cc1` (some centres undefined), which Cmax [4] is on record?
Answer: 52.6 µg/g

Question: What about the AUC [5] of the same compound?
Answer: 5870 µg·min/g

Question: Which results are given for `CC(C)Cc1ccc(C(C)C(=O)O)cc1` (centres undefined) [IBUPROFEN]?
Answer: Cmax [6]: 10.7 µg/g; AUC [7]: 1860 µg·min/g

Question: For `CC(c1ccc(O)c(O)c1)N(C)C.Cl` (centres undefined), which Papp [1] is on record?
Answer: 1.13 ×10⁻⁶ cm/s

Question: With `CC(C(=O)O)c1cccc(C(=O)c2ccccc2)c1` (centres undefined) [KETOPROFEN] as the compound, how does the Kp uu [8] read?
Answer: 0.01

Question: For `CC(C)CCN(c1nc(C#N)nc(N2CCOCC2)n1)C(C)c1ccc(F)cc1` (centres undefined), which IC50 [9] is on record?
Answer: 92 nM

Question: What about the efflux ratio [10] of the same compound?
Answer: 0.223

Question: What about the Kp [11] of the same compound?
Answer: 0.52

Question: What about the IC50 (Procathepsin L) of the same compound?
Answer: 23 nM

Question: With `N#Cc1nc(N2CCOCC2)nc(N(Cc2ccc(F)cc2)CC2CCCNC2)n1` (centres undefined) as the compound, how does the IC50 [9] read?
Answer: 181 nM

Question: What about the efflux ratio [10] of the same compound?
Answer: 17.2

Question: And the Kp [11]?
Answer: 0.15

Question: And the IC50 (Procathepsin L)?
Answer: 1200 nM

Source: ChEMBL document CHEMBL5226339, “Strategies for Structural Modification of Small Molecules to Improve Blood-Brain Barrier Penetration: A Recent Perspective” (J Med Chem, 2021)
